# Assay results: patent US7919101B2 (priority 2008, dated 2011)
# Like-named read-outs stand apart in the source and are kept apart here. Residues, ends and D or L forms follow the SMILES beside them. No end group written: not given here.
# Tests used:
# [1] = test system: HIV-1 Env-mediated cell-cell fusion; details: cited from earlier work
# gp41 6-HB formation = gp41 6-HB formation (Human immunodeficiency virus type 1 group M subtype B, UniProt P04578); details: cited from earlier work
# HIV-1 = details: cited from earlier work
# [2] = test system: HIV-1-mediated cell-cell fusion (H9/HIV-1IIIB cells and MT-2 cells); test: HIV-1-mediated cell-cell fusion, dye transfer assay; assay type: cell-based
# Experimental: The inhibitory activities of the compounds on HIV-induced cell-cell fusion were determined using a dye transfer assay (Jiang S et al. Proc SPIE 3926:212-219, 2000). Briefly, H9/HIV-1IIIB cells were pre-labeled with a fluorescent dye, Calcein AM (Molecular Probes, Inc.), and incubated with a testing compound at a graded concentration at 37° C. for 30 min in a 96-well cell culture plate. Then the CD4^+ MT-2 cells were added to the H9/HIV-1IIIB cells at a ratio of 10:1, followed by incubation at 37° C. for 2 hrs. The fused and unfused calcein-labeled HIV-1-infected cells were counted under an inverted fluorescence microscope with an eyepiece micrometer disc.
# [3] = cited from earlier work
# [4] = in combination T-20:Sifuvirtide (4:1)
# [5] = in combination T-20:Sifuvirtide (4:1) vs alone
# Chain of gp41 6-HB formation (P04578 546-581): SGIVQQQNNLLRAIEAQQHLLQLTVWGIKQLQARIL
compound,measurement,setting,value
COc1ccc(S(=O)(=O)[O-])cc1N=Nc1c(S(=O)(=O)[O-])cc2cc(Nc3nc(Nc4ccccc4)nc(Nc4cc(C)c(N=Nc5cc(S(=O)(=O)[O-])cc6cc(S(=O)(=O)[O-])cc(O)c56)cc4OC)n3)ccc2c1O.[Na+].[Na+].[Na+].[Na+] [ADS-J1],"EC50, HIV-1 mediated cell-cell fusion (in words)",[1],low μM range
same,"EC50, gp41 6-HB formation (in words)",gp41 6-HB formation,low μM range
same,"EC50, HIV infection / replication (in words)",HIV-1,low μM range
CC[C@H](C)[C@H](NC(=O)[C@H](CCC(=O)O)NC(=O)[C@H](CCCNC(=N)N)NC(=O)[C@H](CCC(=O)O)NC(=O)[C@H](Cc1c[nH]c2ccccc12)NC(=O)[C@@H](NC(=O)[C@H](CCC(=O)O)NC(=O)[C@H](Cc1c[nH]c2ccccc12)NC(=O)[C@@H](N)CO)[C@@H](C)O)C(=O)N[C@@H](CCC(=O)O)C(=O)N[C@@H](CC(N)=O)C(=O)N[C@@H](Cc1ccc(O)cc1)C(=O)N[C@H](C(=O)N[C@@H](CCCCN)C(=O)N[C@@H](CCC(N)=O)C(=O)N[C@H](C(=O)N[C@@H](Cc1ccc(O)cc1)C(=O)N[C@@H](CCCCN)C(=O)N[C@H](C(=O)N[C@@H](CC(C)C)C(=O)N[C@@H](CCC(=O)O)C(=O)N[C@@H](CCC(=O)O)C(=O)N[C@@H](CO)C(=O)N[C@@H](CCC(N)=O)C(=O)N[C@@H](CCC(=O)O)C(=O)N[C@@H](CCC(N)=O)C(=O)N[C@@H](CCC(N)=O)C(=O)N[C@@H](CC(=O)O)C(=O)N[C@@H](CCCNC(=N)N)C(=O)N[C@@H](CC(N)=O)C(=O)N[C@@H](CCC(=O)O)C(=O)N[C@@H](CCCCN)C(=O)N[C@@H](CC(=O)O)C(=O)N[C@@H](CC(C)C)C(=O)N[C@@H](CC(C)C)C(=O)N[C@@H](CCC(=O)O)C(=O)O)[C@@H](C)CC)[C@@H](C)CC)[C@@H](C)O [Sifuvirtide] (H-SWETWEREIENYTKQIYKILEESQEQQDRNEKDLLE-OH; N-terminus and C-terminus assumed),EC70 Concentration Mix,[2]; [4],0.589 nM
same,EC95 Concentration Mix,[2]; [4],0.884 nM
same,Potency increase at EC50,[2]; [5],35.424 fold
same,Potency increase at EC70,[2]; [5],35.075 fold
same,Potency increase at EC90,[2]; [5],34.771 fold
same,Potency increase at EC95,[2]; [5],34.564 fold
same,EC50,"[2]; in combination T-20:Sifuvirtide (4:1), read-out: EC50 Concentration Mix",0.462 nM
same,EC90,"[2]; in combination T-20:Sifuvirtide (4:1), read-out: EC90 Concentration Mix",0.75 nM
same,EC70 Concentration Alone,[2]; peptide tested alone,20.659 nM
same,EC95 Concentration Alone,[2]; peptide tested alone,30.555 nM
same,EC50,"[2]; peptide tested alone, read-out: EC50 Concentration Alone",16.4 nM
same,EC90,"[2]; peptide tested alone, read-out: EC90 Concentration Alone",26.1 nM
same,decay half-life,[3]; multiple administration,26.0 ± 7.9 h
same,decay half-life,[3]; single administration,20.0 ± 8.6 h
"NHR-peptide, disulfide-stabilized helical trimer; SEQ ID NO:48 SGIVQQQNNLLRAIEAQQHLLQLTVWGIKQCCGR (not fully specified (bridges); also: disulfide-stabilized helical trimer) [N34ccg]",EC50,"[1]; read-out: EC50, HIV-induced cell-cell fusion",95 nM
short all D-amino acid peptide; SEQ ID NO:24 KGACELLGWEWAWLCAA [D10-p5-2K],"EC50, HIV infection / replication (in words)",HIV-1,low micromolar range
short all D-amino acid peptide; SEQ ID NO:25 KGACDYPEWQWLCAA [PIE7],"EC50, HIV infection / replication (in words)",HIV-1,low micromolar range
